Reference: the NIST ThermoML archive (doi:10.1021/je060217u)
Numbers after ± are expanded uncertainties.

Key:
[1] = 298.15 K; 101 kPa; Liquid
[2] = xn = mol fraction of the nth substance listed; settings: 298.15 K, 101 kPa, Liquid

CCCCO [butan-1-ol]
Settings	mass density [kg/m3]
[1]	806.04 ± 0.56

CCCCO [butan-1-ol] + COC(=O)OC
Settings	mass density [kg/m3]
[2], x1 = 1	806.04 ± 0.56

COC(=O)OC [dimethyl carbonate]
Settings	mass density [kg/m3]
[1]	1063.19 ± 0.31

COC(=O)OC [dimethyl carbonate] + CCCCO
[2]
Settings	mass density [kg/m3]
x2 = 0	1063.19 ± 0.31
x2 = 0.0502	1047.97 ± 0.28
x2 = 0.0999	1033.24 ± 0.26
x2 = 0.1499	1018.51 ± 0.23
x2 = 0.2003	1004.53 ± 0.21
x2 = 0.2501	990.53 ± 0.22
x2 = 0.2998	976.9 ± 0.25
x2 = 0.3499	963.39 ± 0.27
x2 = 0.4	950.13 ± 0.3
x2 = 0.4501	937.02 ± 0.33
x2 = 0.5	924.2 ± 0.35
x2 = 0.55	911.58 ± 0.37
x2 = 0.6	899.07 ± 0.39
x2 = 0.65	886.83 ± 0.41
x2 = 0.7	874.68 ± 0.43
x2 = 0.7499	862.98 ± 0.45
x2 = 0.7999	851.07 ± 0.47
x2 = 0.85	839.53 ± 0.49
x2 = 0.8999	828.11 ± 0.52
x2 = 0.9499	817 ± 0.54

COC(=O)OC [dimethyl carbonate] + CCCO
[2]
Settings	mass density [kg/m3]
x2 = 0	1063.19 ± 0.31
x2 = 0.0501	1050.5 ± 0.29
x2 = 0.1002	1037.73 ± 0.27
x2 = 0.1498	1025.44 ± 0.24
x2 = 0.1999	1012.47 ± 0.22
x2 = 0.2502	999.85 ± 0.21
x2 = 0.2999	987.13 ± 0.23
x2 = 0.3498	974.39 ± 0.26
x2 = 0.3998	961.45 ± 0.28
x2 = 0.4499	948.47 ± 0.31
x2 = 0.5001	935.29 ± 0.34
x2 = 0.55	922.19 ± 0.35
x2 = 0.6	908.92 ± 0.37
x2 = 0.6501	895.57 ± 0.4
x2 = 0.7001	882.18 ± 0.42
x2 = 0.75	868.68 ± 0.44
x2 = 0.8002	855.15 ± 0.47
x2 = 0.8501	841.36 ± 0.49
x2 = 0.9002	827.59 ± 0.52
x2 = 0.9502	813.83 ± 0.54

COC(=O)OC [dimethyl carbonate] + CCO
[2]
Settings	mass density [kg/m3]
x2 = 0	1063.19 ± 0.31
x2 = 0.0501	1052.75 ± 0.29
x2 = 0.1	1042.29 ± 0.27
x2 = 0.1501	1031.54 ± 0.25
x2 = 0.1998	1020.64 ± 0.24
x2 = 0.2498	1009.34 ± 0.22
x2 = 0.2998	997.73 ± 0.21
x2 = 0.3501	985.68 ± 0.24
x2 = 0.4002	973.28 ± 0.26
x2 = 0.4499	960.59 ± 0.29
x2 = 0.5	947.4 ± 0.32
x2 = 0.55	933.74 ± 0.34
x2 = 0.6001	919.57 ± 0.36
x2 = 0.65	905 ± 0.38
x2 = 0.6999	889.89 ± 0.41
x2 = 0.7499	874.1 ± 0.43
x2 = 0.8001	857.71 ± 0.46
x2 = 0.8498	840.7 ± 0.49
x2 = 0.8998	822.98 ± 0.53
x2 = 0.95	804.45 ± 0.56

CCO [ethanol]
Settings	mass density [kg/m3]
[1]	785.2 ± 0.6

CCO [ethanol] + COC(=O)OC
Settings	mass density [kg/m3]
[2], x1 = 1	785.2 ± 0.6

CCCO [propan-1-ol]
Settings	mass density [kg/m3]
[1]	799.75 ± 0.57

CCCO [propan-1-ol] + COC(=O)OC
Settings	mass density [kg/m3]
[2], x1 = 1	799.75 ± 0.57
